These results are taken from patent publication US20140220132A1, “Pharmaceutical Formulation Comprising Compounds of the Jasmonate Family” (priority 2011, published 2014).

The nature of this series: GC/MS analysis of incorporation of methyl jasmonate into nano carriers (inclusion complexes). It counts as physicochemical. Conditions: determined by GC. The procedure: The following analysis were performed with GC/MS (gas chromatography/mass spectrometry), showing possible breakages of the elements that are included in the jasmonate family and also inclusion of such elements in several nano carriers such as dendrimers and CDs for comparison of analytical behavior. Used dendrimers was PAMAM (poly amide amine). Cyclodextrin was used as β-cyclodextrin.
Preparation of inclusion complexes was performed according to Rajewski R A, Stella V J pharmaceutical applications of cyclodextrins. 2. In delivering the in vivo drug. J. Pharm Sci 1996; 85 (11):1142-69. Inclusion compounds, or nano/micro carriers with jasmonates, can be prepared through mixing a different concentration from zero from one or more jasmonate compounds with up to a molar proportion equivalent to the host molecule. The preparation process also includes mixing the compound resulting from metabolism of the element of the jasmonate family in a water solution or other solution with acceptable pharmaceutical salts. The resulting solution is agitated until total dissolution of components in solvent. The mixing time is of some hours until the mixture reaches thermodynamic balance. […]

Turning to `CC/C=C\CC1C(=O)CCC1CC(=O)OC` (centres unmarked) [methyl jasmonate], where the note is “carrier PAMAM (poly amide amine) dendrimers”, the “percentage regarding incorporation of methyl jasmonate within PAMAM dendrimers” value is “around 95%”. The “percentage regarding incorporation of methyl jasmonate within β-CD” value (carrier β-cyclodextrin) is reported as 98-99%.
